Experiment: solvent given as SMILES

CC(C)Cc1ccc(C(C)C(=O)O)cc1 (stereo not given)
Settings | solvation free energy, 298 K [kcal/mol]
in CC(C)CO | -13.2
in CC(C)O | -13.4
in CCC(C)O | -13.2
in CCCCCCCCCCO | -13
in CCCCCCCO | -13.1
in CCCCCCO | -13.2
in CCCCCO | -13.1
in CCCCO | -13.1
in CCCO | -13.2
in CCO | -13.1
in CN(C)C=O | -13.1
in CO | -13.1
in Clc1ccccc1 | -11.9
in NC=O | -10.9
in O | -7

CC(C)C#N
Settings | solvation free energy, 298 K [kcal/mol]
in CCCCCCCCCCCCCCCC | -3.08
in CCCCCCCCO | -3.92
in O | -3.31
in [2H]O[2H] | -3.29

COC(=O)c1ccccc1
Settings | solvation free energy, 298 K [kcal/mol]
in CC(C)CC(C)(C)C | -6.71
in O | -3.91

c1ccoc1
Settings | solvation free energy, 298 K [kcal/mol]
in CC(=O)N(C)C | -3.72
in CCCCN(C=O)CCCC | -3.27
in CNC(C)=O | -3.23
in O | -0.9

Cc1ccc(C2(C)CCCC2(C)C)cc1 (stereo not given)
Settings | solvation free energy, 298 K [kcal/mol]
in O | -0.61

CC(=O)CC(=O)c1ccccc1
Settings | solvation free energy, 298 K [kcal/mol]
in CCCCCC | -7.72
in CCCCCCC | -7.87
in CCCCCCCC | -7.76
in CCCCCCCCCC | -7.76

Cc1ccccc1C(=O)N(O)c1ccccc1C
Settings | solvation free energy, 298 K [kcal/mol]
in O | -11.2

CCCCCCCCCCCCCCCCCCCCCCCC
Settings | solvation free energy, 298 K [kcal/mol]
in CC(=O)N(C)C | -16.4
in CC(C)(C)O | -14.6
in CC(C)O | -13.6
in CCC(C)=O | -14.8
in CCCCCCCCCCO | -15.2
in CCCCCCO | -14.2
in CCCCCO | -14.1
in CCCCO | -13.9
in CCCCOC(C)=O | -15.4
in CCCO | -13.8
in CCO | -13.4
in CN(C)C=O | -16.4
in CO | -12.3
in COC(C)(C)C | -16.3
in ClCCl | -16
in O | 5.24

C=CC(C)=CCC=C(C)CCC=C(C)C
Settings | solvation free energy, 298 K [kcal/mol]
in O | -1.06

CCCCOC(C)=O
Settings | solvation free energy, 298 K [kcal/mol]
in CC(=O)N(C)C | -5.24
in CC(C)CCCC(C)CCCC(C)CCCCC(C)CCCC(C)CCCC(C)C | -4.52
in CCCCC(CC)COC(=O)CCCCC(=O)OCC(CC)CCCC | -4.89
in CCCCCC | -4.94
in CCCCCCC | -4.92
in CCCCCCCC | -4.9
in CCCCCCCCC=CCCCCCCCC(=O)OCC(COC(=O)CCCCCCCC=CCCCCCCCC)OC(=O)CCCCCCCC=CCCCCCCCC | -5.07
in CCCCCCCCCC | -4.75
in CCCCCCCCCCCCCCCC | -4.52
in CCCCCCCCO | -5.01
in CCCCN(C=O)CCCC | -5.24
in CNC(C)=O | -5.14
in CO | -5.36
in NC=O | -4.07
in O | -2.65
in [2H]O[2H] | -2.76

CCCCCO
Settings | solvation free energy, 298 K [kcal/mol]
in Brc1ccccc1 | -5.42
in C1CCOC1 | -6.61
in CC#N | -5.85
in CC(C)(C)O | -6.96
in CC(C)CC(C)(C)C | -4.37
in CC(C)CO | -6.85
in CC(C)O | -6.83
in CCCCCC | -4.62
in CCCCCCC | -4.48
in CCCCCCCC | -4.27
in CCCCCCCCCC | -4.16
in CCCCCCCCCCCCCCCC | -4.08
in CCCCCCCCCCO | -6.39
in CCCCCCCCO | -6.37
in CCCCCCO | -6.68
in CCCCO | -6.77
in CCCO | -6.78
in CO | -6.84
in Cc1cccc(C)c1 | -5.21
in Cc1ccccc1C | -5.21
in Clc1ccccc1 | -5.48
in NC=O | -5.65
in O | -4.56
in [2H]O[2H] | -4.61

CC1=CCC2CC3C(C)CCC13C2(C)C (stereo not given)
Settings | solvation free energy, 298 K [kcal/mol]
in O | 0.78

Cc1cc(NS(=O)(=O)c2ccc(N)cc2)no1
Settings | solvation free energy, 298 K [kcal/mol]
in O | -17.8

C=C(C)C1CCC2(C)CCC=C(C)C2C1 (stereo not given)
Settings | solvation free energy, 298 K [kcal/mol]
in O | -0.16

CC(C)C=O
Settings | solvation free energy, 298 K [kcal/mol]
in CC(=O)N(C)C | -4.04
in CCCCN(C=O)CCCC | -3.78
in CCOC(C)=O | -4.05
in CN1CCCC1=O | -3.79
in CN1CCCCC1=O | -3.92
in CN(C)C=O | -4.09
in CNC(C)=O | -3.68
in O | -2.86
in O=CN1CCOCC1 | -3.63

CCN(CC)N=O
Settings | solvation free energy, 298 K [kcal/mol]
in CC(C)CC(C)(C)C | -5.28
in O | -5.46

C=C
Settings | solvation free energy, 298 K [kcal/mol]
in Brc1ccccc1 | -0.52
in C1CCC2CCCCC2C1 | -0.46
in C1CCOC1 | -0.82
in C1COCCO1 | -0.58
in CC1CO1 | -0.89
in CC1COC(=O)O1 | -0.17
in CC#N | -0.62
in CC(=O)N(C)C | -0.45
in CC(C)(C)O | -0.49
in CC(C)=O | -0.76
in CC(C)CO | -0.46
in CC(C)O | -0.45
in CCC(C)O | -0.44
in CCCCC | -0.69
in CCCCCC | -0.64
in CCCCCCC | -0.62
in CCCCCCCC | -0.6
in CCCCCCCCC | -0.6
in CCCCCCCCCC | -0.57
in CCCCCCCCCCCCCCCC | -0.39
in CCCCCCCCO | -0.37
in CCCCCCCO | -0.43
in CCCCCCO | -0.43
in CCCCCO | -0.48
in CCCCO | -0.46
in CCCO | -0.52
in CCO | -0.56
in CCOCC | -0.97
in CN1CCCC1 | -0.32
in CN1CCCC1=O | -0.4
in CN(C)C=O | -0.45
in CN(C)P(=O)(N(C)C)N(C)C | -0.52
in CNC=O | -0.2
in CO | -0.51
in COC(C)=O | -0.75
in COCCOCCOCCOC | -0.25
in CS(C)=O | -0.05
in Cc1cccc(C)c1 | -0.61
in ClC(Cl)(Cl)Cl | -0.78
in ClCCCl | -0.49
in Clc1ccccc1 | -0.61
in N#Cc1ccccc1 | -0.45
in Nc1ccccc1 | -0.15
in O | 1.28
in O=C1CCCC1 | -0.6
in O=C1CCCCC1 | -0.55
in OCCCOCCCO | 0.06
in OCCO | 0.5
in OCc1ccccc1 | -0.23
in c1ccccc1 | -0.66

O=NN1CCOCC1
Settings | solvation free energy, 298 K [kcal/mol]
in O | -7.78

O=Nc1c(O)ccc2ccccc12
Settings | solvation free energy, 298 K [kcal/mol]
in O | -7.31

COC(=O)c1ccc(O)cc1
Settings | solvation free energy, 298 K [kcal/mol]
in C1CCOC1 | -12.5
in C1COCCO1 | -12.3
in CC(C)(C)O | -12.2
in CC(C)=O | -12.3
in CC(C)CO | -12
in CCC(C)O | -12.2
in CCCCCC | -7.42
in CCCCCCCCCCO | -11.4
in CCCCCCO | -11.9
in CCCCCO | -12
in CCCCO | -12.1
in CCCCOC(C)=O | -11.8
in CCCCOCCCC | -10.7
in CCCO | -12.2
in CCOC(C)=O | -11.9
in CCOCC | -11.7
in CNC=O | -12.7
in COC(C)(C)C | -11.8
in NC=O | -12.1
in O | -9.35

CC12CCC(=O)C=C1CCC1C2C(O)CC2(C)C1CCC2(O)C(=O)CO (stereo not given)
Settings | solvation free energy, 298 K [kcal/mol]
in C=CCCCCCCC=C | -21.7
in C=CCCCCCCCCCCCCCC | -20.9
in O | -25.4

Oc1cccc(Cl)c1
Settings | solvation free energy, 298 K [kcal/mol]
in CCCCCC | -6.52
in CCCCCCC | -6.51
in CCCCCCCC | -6.48
in CCCCCCCCCC | -6.48
in Cc1ccc(C)cc1 | -7.97
in Cc1cccc(C)c1 | -8.05
in Cc1ccccc1C | -8.07
in O | -6.62
